Columns and labels:
P. aeruginosa bacteria = assay: Pyocyanin level in culture supernatant after treatment; assay type: cell-based; settings: for bacteria pyocyanin relative to untreated control: single treatment, culture supernatant
Method: Shown is bacteria pyocyanin relative to untreated control. […] When P. aeruginosa bacteria are exposed to treatments along x-axis, the supernatant of the culture is tested for pyocyanin level.

PA14 = assay: Pyocyanin production in bacterial cultures; assay type: cell-based, Pseudomonas aeruginosa; settings: antibiotic alone
Source text: Deletion of type-IV pili is shown to attenuate virulence in P. aeruginosa, by impairing pyocyanin production, twitching motility, and biofilm formation (Persat et al. (2015) Proc. Natl. Acad. Sci. 112:7563-7568). Phage TIVP-H6 selects for phage resistance in P. aeruginosa via bacterial alteration or loss of type-IV pili.

In the case of `O=C(O)c1cn(C2CC2)c2cc(N3CCNCC3)c(F)cc2c1=O` [Ciprofloxacin], the “bacteria pyocyanin relative to untreated control” value (P. aeruginosa bacteria) is reported as “do not reducte production” and the “effect of antibiotic on pyocyanin production” value (PA14) is reported as “either increased or did not affect”.
`CC[C@H]1OC(=O)[C@H](C)[C@@H](O[C@H]2C[C@@](C)(OC)[C@@H](O)[C@H](C)O2)[C@H](C)[C@@H](O[C@@H]2O[C@H](C)C[C@H](N(C)C)[C@H]2O)[C@](C)(O)C[C@@H](C)C(=O)[C@H](C)[C@@H](O)[C@]1(C)O` [Eythromycin] was tested, and the “killing of bacteria in the pyocyanin assay” value (P. aeruginosa bacteria) was “does not kill bacteria in this assay” and the “bacteria pyocyanin relative to untreated control” value (P. aeruginosa bacteria) was “causes reduced pyocyanin production”.
With `CC1(C)S[C@@H]2[C@H](NC(=O)C(C(=O)O)c3ccccc3)C(=O)N2[C@H]1C(=O)O` (stereo partly drawn) [Carbenicillin] the “bacteria pyocyanin relative to untreated control” value (P. aeruginosa bacteria) was “do not reducte production”.
With `CCn1cc(C(=O)O)c(=O)c2ccc(C)nc21` [Nalidixic acid] the “bacteria pyocyanin relative to untreated control” value (P. aeruginosa bacteria) was “do not reducte production”.
